Experimental data from patent publication US8865724B2, “Preparation of 2-methyl-4-amino-5(substituted-1H-1,2,3-triazolyl)methylpyrimidine derivatives and microbicidal activity thereof” (Central China Normal University, priority 2011, dated 2014).
Like-named read-outs stand apart in the source and are kept apart here.

What was measured:
[1] = test system: Downy Mildew of Cucumber; test: Microbicidal activity on cucumber seedlings, spray then spore inoculation (Embodiment 8); details: for pest or weed control at 500 µg/g: Cucumis sativus, read-out: Downy Mildew of Cucumber Average inhibition rate (%)
Method: (§1) (Pseudomonassyringaepv. tomato (Okabe) Young, Dye & Wilkie), Cucumber Angular Leaf Spot, Rice Sheath Blight Disease (Rhizoctonia solani), Corynespora Leaf Spot of Cucumber (Corynespora cassiicola), Downy Mildew of Cucumber (Cucumber Downy Mildew).
(§2) Testing agents and control agents were sprayed uniformly at A.M. of a sunshine day on the cucumber seminal leaves. After 2 hours, the leaves were inoculated with pathogenic microbes and cultured at humidity. […] Strip inoculation is used for Rice Sheath Blight Disease and phytophthora blight of pepper, in which the liquor was sprayed and after 2 hours, inoculation of strips was performed followed by culturing at humidity. After full occurrence of diseases in the control group, state of illness was examined according to grading standards, and a disease index and inhibition rate were calculated.

[2] = test system: Rice Sheath Blight Disease; test: Microbicidal activity, spray then strip inoculation (Embodiment 8); details: for pest or weed control at 500 µg/g: Oryza sativa, read-out: Rice Sheath Blight Disease Average inhibition rate (%)
Method: as §1, §2

[3] = test system: Corynespora Leaf Spot of Cucumber; test: Microbicidal activity on cucumber seedlings, spray then spore inoculation (Embodiment 8); details: for pest or weed control at 500 µg/g: Corynespora, in Cucumis sativus, read-out: Corynespora Leaf Spot of Cucumber Average inhibition rate (%)
Method: as §1, §2

[4] = test system: Cucumber Angular Leaf Spot; test: Microbicidal activity on cucumber seedlings, spray then inoculation (Embodiment 8); details: Cucumis sativus, read-out: Cucumber Angular Leaf Spot Average inhibition rate (%)
Method: as §1, §2

[5] = test system: wheat scab; test: microbe, parasite or virus in culture; assay type: cell-based, Gibberella zeae; details: for inhibition of growth at 100 µg/g: 48 h, read-out: Wheat scab Average inhibition rate (%); for Wheat scab (inhibition): Table 7
[6] = test system: Rice Sheath Blight Disease (sheath and culm blight of rice); test: Spawn growth rate on agar plates (Embodiment 9); assay type: cell-based, Rhizoctonia solani; details: 48 h; for inhibition of growth at 12.5 µg/g: Concentration 12.5 μg/g; for inhibition of growth at 25 µg/g: Concentration 25 μg/g; for inhibition of growth at 50 µg/g: Concentration 50 μg/g
[7] = test system: gray mold of cucumber; test: Spawn growth rate on agar plates (Embodiment 9); assay type: cell-based, Botrytis cinerea; details: 48 h; for inhibition of growth at 12.5 µg/g: Concentration 12.5 μg/g; for inhibition of growth at 25 µg/g: Concentration 25 μg/g; for inhibition of growth at 50 µg/g: Concentration 50 μg/g
[8] = test system: early blight of tomato; test: Spawn growth rate on agar plates (Embodiment 9); assay type: cell-based, Alternaria solania; details: for inhibition of growth at 100 µg/g: 48 h, testing concentration of 100 μg/g, Table 6; for Early blight of tomato (inhibition): Table 7
[9] = testing concentration of 100 μg/g, Table 6, read-out: Sheath and culm blight of rice Average inhibition rate (%)
[10] = testing concentration of 100 μg/g, Table 6, read-out: Gray mold of cucumber Average inhibition rate (%)
[11] = testing concentration of 100 μg/g, Table 4, read-out: Gray mold of cucumber Average inhibition rate (%)
[12] = testing concentration of 500 μg/g
[13] = Concentration 100 μg/g, Table 7, read-out: Sheath and culm blight of rice (inhibition)
[14] = Concentration 100 μg/g, Table 7, read-out: Gray mold of cucumber (inhibition)

Molecule	pest or weed control at 500 µg/g [1] [%]	pest or weed control at 500 µg/g [2] [%]	pest or weed control at 500 µg/g [3] [%]	pest or weed control at 500 µg/g [4] [%]	inhibition of growth at 100 µg/g [5] [%]	inhibition of growth at 100 µg/g [6, 9] [%]	inhibition of growth at 100 µg/g [7, 10] [%]	inhibition of growth at 100 µg/g [8] [%]	melting point [°C]	inhibition of growth at 100 µg/g [7, 11] [%]	other results
COC(=O)NC(=S)Nc1ccccc1NC(=S)NC(=O)OC [Thiophanate-methyl, reference compound]	20	85	80								
Cc1ncc(Cn2cc(COc3ccc([N+](=O)[O-])cc3)nn2)c(N)n1 [Compound 1]	75	90	50	60							
Cc1ncc(Cn2nnc(COc3ccccc3)c2I)c(N)n1 [Compound 23]					59	96	88	57			
Cc1ncc(Cn2nnc(COc3ccc([N+](=O)[O-])cc3)c2I)c(N)n1 [Compound 24]					68	97	84	66	215 to 217		
Cc1ncc(Cn2nnc(COc3ccc(Cl)c(C)c3)c2I)c(N)n1 [Compound 25]					62	97	96	71	215 to 217		inhibition of growth at 12.5 µg/g ([6]; Table 8): 0%; inhibition of growth at 25 µg/g ([6]; Table 8): 25%; inhibition of growth at 50 µg/g ([6]; Table 8): 61%; inhibition of growth at 12.5 µg/g ([7]; Table 8): 40%; inhibition of growth at 25 µg/g ([7]; Table 8): 50%; inhibition of growth at 50 µg/g ([7]; Table 8): 67%
COc1ccc(OCc2nnn(Cc3cnc(C)nc3N)c2I)cc1 [Compound 26]					55	99	92	69	177 to 179		inhibition of growth at 12.5 µg/g ([6]; Table 8): 58%; inhibition of growth at 25 µg/g ([6]; Table 8): 72%; inhibition of growth at 50 µg/g ([6]; Table 8): 94%; inhibition of growth at 12.5 µg/g ([7]; Table 8): 43%; inhibition of growth at 25 µg/g ([7]; Table 8): 55%; inhibition of growth at 50 µg/g ([7]; Table 8): 88%
COc1ccc(OCc2cn(Cc3cnc(C)nc3N)nn2)cc1 [Compound 13]	50	70	80	60					115 to 117	49	
COc1ccc(C(=CC(=O)N2CCOCC2)c2ccc(Cl)cc2)cc1OC [Dimethomorph, reference compound]	90	90	70								
jingangmycin [reference compound]											Downy Mildew of Cucumber Average inhibition rate (%) [1, 12]: 70%; Rice Sheath Blight Disease Average inhibition rate (%) [2, 12]: 70%; Corynespora Leaf Spot of Cucumber Average inhibition rate (%) [3, 12]: 70%
COC(=O)Cc1ccc(OCc2cn(Cc3cnc(C)nc3N)nn2)cc1 [Compound 9]	80	90	60	60					142 to 143	79	
Cc1ncc(Cn2cc(COc3ccccc3)nn2)c(N)n1 [Compound 12]	70	80	70	60					132 to 133	53	
Cc1ncc(Cn2nnc(COc3ccc(Cl)cc3C)c2I)c(N)n1 [Compound 29]					67	98	100	60	163 to 165		Wheat scab (inhibition) ([5]; Concentration 25 μg/g): 26%; Wheat scab (inhibition) ([5]; Concentration 50 μg/g): 45%; Wheat scab (inhibition) ([5]; Concentration 100 μg/g): 52%; inhibition of growth at 12.5 µg/g ([6]; Table 8): 33%; inhibition of growth at 25 µg/g ([6]; Table 7): 64%; inhibition of growth at 25 µg/g ([6]; Table 8): 68%; inhibition of growth at 50 µg/g ([6]; Table 7): 70%; inhibition of growth at 50 µg/g ([6]; Table 8): 69%; inhibition of growth at 100 µg/g [6, 13]: 96%; inhibition of growth at 12.5 µg/g ([7]; Table 8): 47%; inhibition of growth at 25 µg/g ([7]; Table 7): 79%; inhibition of growth at 25 µg/g ([7]; Table 8): 72%; inhibition of growth at 50 µg/g ([7]; Table 7): 90%; inhibition of growth at 50 µg/g ([7]; Table 8): 91%; inhibition of growth at 100 µg/g [7, 14]: 100%; Early blight of tomato (inhibition) ([8]; Concentration 25 μg/g): 0%; Early blight of tomato (inhibition) ([8]; Concentration 50 μg/g): 25%; Early blight of tomato (inhibition) ([8]; Concentration 100 μg/g): 41%
Cc1ncc(Cn2nnc(COc3ccc(Br)cc3)c2I)c(N)n1 [Compound 84]					62	98	93	58	138 to 140		inhibition of growth at 12.5 µg/g ([6]; Table 8): 73%; inhibition of growth at 25 µg/g ([6]; Table 8): 95%; inhibition of growth at 50 µg/g ([6]; Table 8): 97%; inhibition of growth at 12.5 µg/g ([7]; Table 8): 66%; inhibition of growth at 25 µg/g ([7]; Table 8): 90%; inhibition of growth at 50 µg/g ([7]; Table 8): 94%
Cc1ncc(Cn2cc(COc3ccc([N+](=O)[O-])cc3[N+](=O)[O-])nn2)c(N)n1 [Compound 8]	60	70	70	60					210 to 211	54	
Cc1ncc(Cn2cc(COc3ccc(Cl)c(C)c3)nn2)c(N)n1 [Compound 11]	50	70	65	60	54				142 to 143	67	
CCOC(=O)c1ccc(OCc2cn(Cc3cnc(C)nc3N)nn2)cc1 [Compound 3]	60	80	80	60					190 to 192	70	
Cc1ncc(Cn2cc(COc3ccc(F)cc3Cl)nn2)c(N)n1 [Compound 6]	30	70	90	65					169 to 171	63	
CC1COC(Cn2cncn2)(c2ccc(Oc3ccc(Cl)cc3)cc2Cl)O1 (stereo not drawn) [Difenoconazole, reference compound]					98	100	96	100		73	Wheat scab (inhibition) ([5]; Concentration 100 μg/g): 95%; inhibition of growth at 100 µg/g [6, 13]: 91%; inhibition of growth at 100 µg/g ([6]; Concentration 100 μg/g, Table 8, read-out: Sheath and culm blight of rice (inhibition)): 100%; inhibition of growth at 100 µg/g [7, 14]: 86%; inhibition of growth at 100 µg/g ([7]; Concentration 100 μg/g, Table 8, read-out: Gray mold of cucumber (inhibition)): 96%
Cc1ncc(Cn2cc(COc3ccccc3[N+](=O)[O-])nn2)c(N)n1 [Compound 16]	50	70	80	70	63				184 to 185	82	
